Reference: publication PMC6057649, “Development of NanoLuc-PEST expressing Leishmania mexicana as a new drug discovery tool for axenic- and intramacrophage-based assays” (PLoS Neglected Tropical Diseases, 2018)
Where two headings read alike, the source gives them in different places.

Test system: NanoLuc-PEST expressing L. mexicana axenic amastigotes
Assay: microbe, parasite or virus in culture
Assay type: cell-based
Details: for EC50: hit compounds from the axenic amastigote screen, S3 Table, read-out: EC50, Axenic Amastigotes; for viability at 2 µM / viability at 10 µM: Leishmania mexicana, read-out: Relative Bioluminescence (%)
[1] = 2 µM compound, 72 hours, relative to DMSO only control, n = 4
[2] = 10 µM compound, 72 hours, relative to DMSO only control, n = 4

| Compound | Relative Bioluminescence (%) [1] [%] | Relative Bioluminescence (%) [2] [%] | further results |
| --- | --- | --- | --- |
| O=C(C1CCN(c2nnnn2-c2ccccc2)CC1)N1CCc2ccccc2C1 [MMV009135] | 83.57 | 73.86 | – |
| Cc1cc2ccccc2n1CC(=O)N1CC(C(=O)N2CCCCC2)Oc2ccccc21 (stereo not shown) [MMV020520] | 108.71 | 127.42 | – |
| CC1=NN(c2nc3ccccc3s2)C(=O)C1Cc1cccc2ccccc12 (stereo not shown) [MMV676558] | -0.86 | -0.77 | EC50: 470 nM |
| O=C(Nc1n[nH]c(=S)s1)c1cc(Br)ccc1Cl [MMV676492] | 60.28 | 23.83 | – |
| CC(C)(C)c1cc(C(=O)N2CCN(c3nccnc3C#N)CC2)n(Cc2ccccc2)n1 [MMV023949] | 80.37 | 52.45 | – |
| O=S(=O)(c1ccc(Cl)cc1)N1CCN(C(=S)NCc2ccco2)CC1 [MMV000858] | 100.91 | 108.52 | – |
| CC(C)n1nc(-c2cc3c(Cl)cccc3[nH]2)c2c(N)ncnc21 [MMV688417] | 76.07 | -0.98 | – |
| CC(C)(C(=O)Nc1ccc(F)cc1)n1cc(-c2ccccc2F)cn1 [MMV687239] | 106.04 | 118.80 | – |
| CCN(CC)C(=O)N1CCN(C)CC1 [MMV002816, Diethylcarbamazine, reference compound] | – | – | viability at 2 µM [1]: 88.8%; viability at 10 µM [2]: 62.5% |
| CNc1nnc(Sc2cnn(-c3ccccc3)c(=O)c2Cl)s1 [MMV688763] | -1.63 | -0.71 | EC50: 380 nM |
| CC[C@@H](CO)NCCN[C@@H](CC)CO [MMV687801, Ethambutol, reference compound] | – | – | viability at 2 µM [1]: 98.6%; viability at 10 µM [2]: 127% |
| COc1cccc(-c2nc3c(N4CCCC4)cccc3n2CC2CCCN2)n1 (stereo not shown) [MMV687703] | 48.25 | 76.96 | – |
| COc1ccccc1CNC(=O)c1cc(C2CC2)nc2c1cnn2C(C)C [MMV020517] | 97.70 | 63.10 | – |
| O=C(NCCN1CCCC1)c1cc(NCCCCN2CCC(F)(F)CC2)nc2ccc(Cl)cc12 [MMV667494] | 55.75 | 61.89 | – |
| CCn1cnc2c(Nc3cc(F)cc(F)c3)nc(C#N)nc21 [MMV676881] | 76.51 | 54.00 | – |
| OC(c1cc(C(F)(F)F)nc2c(C(F)(F)F)cccc12)C1CCCCN1 (stereo not shown) [MMV000014, Mefloquine, reference compound] | – | – | viability at 2 µM [1]: 93.4%; viability at 10 µM [2]: 109% |
| OCCc1ccc(Nc2nccc(-c3nnc4ccccn34)n2)cc1 [MMV028694] | 24.99 | 3.77 | – |
| O=C(NC1=NCCS1)c1sc2cc(F)ccc2c1Cl [MMV676584] | 83.30 | 89.36 | – |
| Cc1cc(C)n(-c2ccc(NC(=O)C3CCN(Cc4cnc(C)s4)CC3)cc2)n1 [MMV007625] | 85.10 | 76.47 | – |
| COc1cncc(-c2cncc(N3CCN(c4ccncc4)CC3)n2)c1 [MMV085071] | 93.07 | 82.11 | – |

| Compound | Relative Bioluminescence (%) [1] [%] | Relative Bioluminescence (%) [2] [%] | further results |
| --- | --- | --- | --- |
| CN1CCN(c2nccc3nc(-c4ccc(F)c(F)c4)[nH]c23)CC1 [MMV676260] | 69.43 | 85.22 | – |
| CCc1ccc([C@@H]2C[C@H](C(F)(F)F)n3ncc(C(=O)NCc4ccc(OC)cc4)c3N2)cc1 [MMV687180] | 49.23 | 1.44 | – |
| O=C1[C@@H](Oc2ccccc2)[C@@H](c2ccc(Cl)cc2)N1CCn1cnc2c(NCc3ccccc3)ncnc21 [MMV688352] | 66.17 | 8.52 | – |
| Cn1ncc2c(N3CCOCC3)nc(NCCc3c[nH]c4ccccc34)nc21 [MMV676382] | 73.92 | 64.75 | – |
| Cc1cccnc1NC(=O)c1cccc(OCc2c(C)noc2C)c1 [MMV688793] | 74.59 | 52.13 | – |
| Clc1ccc(-n2cc(COc3ccnc4ccccc34)nn2)cc1 [MMV675994] | 74.96 | 81.16 | – |
| CC(Oc1ccccc1)C(=O)Nc1nc(-c2ccccn2)cs1 (stereo not shown) [MMV676411] | 48.75 | -0.81 | – |
| COC(=O)c1cccc2oc(-c3cccc(OC)c3NC(=O)c3cc(-c4ccccc4)on3)nc12 [MMV676186] | 83.95 | 21.54 | – |
| Nc1c2c(nc3sc4c(c13)CCCC4)CCCC2 [MMV676588] | 70.58 | 69.13 | – |
| Nc1nccc2ccc(-c3ccc4nccn4c3)cc12 [MMV023233] | 106.85 | 120.49 | – |
| NC(=O)c1cc(Br)ccc1OCCOc1ccccc1 [MMV687243] | 65.34 | 78.50 | – |
| COc1ccc(C2=NCCN2)cc1-c1cn(-c2cccc(C3=NCCN3)c2)nn1 [MMV688547] | 85.85 | 128.07 | – |
| Clc1ccc(CN2CCN(C3=NCCN3)CC2)cc1Cl [MMV689060] | 99.56 | 112.63 | – |
| C[C@H](C(N)=O)N1CCCC[C@@H]1c1ccc(OCc2cccc(F)c2)cc1 [MMV676270] | 41.26 | 18.00 | – |
| NCCC[C@](N)(C(=O)O)C(F)F [MMV001625, α-Difluoromethylornithine, reference compound] | 69.72 | 81.23 | – |
| Cc1cc(Cl)c(S(=O)(=O)N2CCCC2)cc1OCC(=O)NC1CCCCC1 [MMV006833] | 98.68 | 81.43 | – |
| OCc1ccc(-c2cncc(Nc3cccc(Cl)c3)c2)cc1 [MMV026468] | 116.14 | 104.46 | – |
| O=C(c1ccco1)N(CCCn1ccnc1)c1nc2c(Cl)cccc2s1 [MMV688936] | 80.40 | 77.21 | – |
| CN1CCC[C@@H]1CCO[C@](C)(c1ccccc1)c1ccc(Cl)cc1 [MMV637229, Clemastine, reference compound] | – | – | viability at 2 µM [1]: 47.3%; viability at 10 µM [2]: 11.2% |
| CC(C)C(C(=O)Nc1ccc(S(=O)(=O)N(C)C)cc1)c1ccc(Cl)cc1 (stereo not shown) [MMV020391] | 89.71 | 17.09 | – |

| Compound | Relative Bioluminescence (%) [1] [%] | Relative Bioluminescence (%) [2] [%] | further results |
| --- | --- | --- | --- |
| COc1cc(NC(C)CCCN)c2ncccc2c1 (stereo not shown) [MMV000023, Primaquine, reference compound] | – | – | viability at 2 µM [1]: 55%; viability at 10 µM [2]: 76.8% |
| CC1=Nc2ccc(Cl)cc2C(O)(c2ccc(C)cc2)N1CCN1CCCCC1 (stereo not shown) [MMV688279] | 70.45 | 75.33 | – |
| CC(C)c1ncc(-c2ccncc2)c(C2CCC(CNC(=O)c3cccnc3)CC2)n1 (stereo not shown) [MMV676442] | 118.75 | 113.29 | – |
| CN1CCN(S(=O)(=O)c2ccc(-c3ccc4c(Nc5ncc(Cl)cn5)ccnc4c3)cc2)CC1 [MMV688283] | 58.40 | 101.72 | – |
| NC(CC(=O)c1ccc(Cl)cc1Cl)C(Cl)(Cl)Cl (stereo not shown) [MMV676468] | 106.85 | 84.33 | – |
| CS(=O)(=O)c1cccc(-c2cnc3[nH]cc(-c4ccc(CCC(=O)O)cc4)c3c2)c1 [MMV026020] | 94.58 | 94.82 | – |
| CC(=O)NC[C@H]1CN(c2ccc(-c3ccc(CNCc4cnn[nH]4)cc3)c(F)c2)C(=O)O1 [MMV688327, Radezolid, reference compound] | – | – | viability at 2 µM [1]: 87.8%; viability at 10 µM [2]: 126% |
| Clc1ccc(Cl)c(CO[C@H]2CCCC[C@@H]2n2ccnc2)c1 [MMV676048] | 104.27 | 53.90 | – |
| c1ccc2c(c1)CN(CC1CC1)CC1(CCN(Cc3c[nH]c4cnccc34)CC1)O2 [MMV023183] | 103.26 | 84.53 | – |
| CS(=O)(=O)c1ccccc1C(=O)N(Cc1ccccc1)c1ccccc1 [MMV688798] | 64.37 | 62.11 | – |
| CNCCC(Oc1ccc(C(F)(F)F)cc1)c1ccccc1 (stereo not shown) [MMV001561, Fluoxetine, reference compound] | – | – | viability at 2 µM [1]: 90.4%; viability at 10 µM [2]: 52.4% |
| CC1CS(=O)(=O)CCN1/N=C/c1ccc([N+](=O)[O-])o1 (stereo not shown) [MMV001499, Nifurtimox, reference compound] | – | – | viability at 2 µM (72 h): 7.65%; viability at 10 µM (72 h): -2.17% |
| CN1CCCN(C(c2ccccc2)c2ccc(Cl)cc2)CC1 (stereo not shown) [MMV004168] | 64.14 | 52.89 | – |
| Clc1cccc(CO[C@H]2CCc3ccccc3[C@@H]2n2ccnn2)c1 [MMV676159] | 101.47 | 98.27 | – |
| NS(=O)(=O)c1cncc(-c2ccc3nccc(-c4cn[nH]c4)c3n2)c1 [MMV024101] | 98.92 | 49.51 | – |
| CCCCOC(=O)Nc1cc2[nH]c(C3CCCCC3)nc2cc1N1CCCC1 [MMV687730] | 85.81 | 52.52 | – |
| CNC(=O)c1nn(C)c2c1C(C)(C)Cc1cnc(Nc3ccc(N4CCN(C)CC4)cc3)nc1-2 [MMV676602] | 91.95 | 77.62 | – |
| Nc1ncc(Br)cc1-c1nc2cc(Cl)cnc2[nH]1 [MMV676358] | 93.00 | 64.12 | – |
